This is an account of results in patent publication US20220370464A1, “COMPOSITIONS AND METHODS OF TREATING OR PREVENTING OCULAR INFECTIONS WITH FILOCICLOVIR” (Microbiotix, Inc., priority 2019, published 2022).

In general, IC50 refers to the concentration needed to halve the response being measured. By EC50 is commonly meant the concentration giving half of the maximal effect. Lower therefore signals higher potency in that assay.

Like-named read-outs stand apart in the source and are kept apart here.

For one series, the system named is AdV8. Nature of the series: Plaque reduction antiviral IC50 assay in A549, AdV8. In kind it is cell-based, adenovirus 8. On the procedure:
(§1) The effectiveness of filociclovir to inhibit a number of adenovirus strains associated with conjunctivitis were tested in an in vitro assay. To determine the in vitro IC50 concentrations, i.e., the concentration of filociclovir that inhibits adenovirus plaque formation by 50%, filociclovir and cidofovir (CDV) were tested against a panel of 7 ocular types of adenovirus.
(§2) 42 A549 24-well multiplates (1 per each drug and each virus strain) were prepared. 7 adenovirus serotypes were tested at a time. Virus dilutions from known titer of stock viruses (approx. 100 PFU/0.1 ml) were prepared with AdV3 L, AdV4 H, AdV5 M, AdV7a J, AdV8 E, AdV 19/64 K, and AdV37 ATCC. 0.1 ml (containing approx. 100 PFU) of each of the 7 viruses were plated onto all 24 wells of an A549 multiplate and incubated at 37° C. in a 5% CO2 water-vapor atmosphere for 3 hours.
(§3) Dilutions of filociclovir and cidofovir were prepared at 400, 40, 4.0, 0.4, 0.04, and 0.004 μM in 2× nutrient tissue culture media, following the dilution protocol: 7.5 ml of each of filociclovir and cidofovir dilution was added to a tube and 22.5 ml of methylcellulose in outgrowth medium (OG) was then added to each tube. 1 ml of each filociclovir and cidofovir dilutions was added to an additional 15 ml tube and 3 ml of OG was added to each tube. This was the overlay for the Adv8 plates. Normal methylcellulose overlay medium without any drug was used for the control wells for each plate.
(§4) For each virus plate, 3 wells were overlaid with each of the 6 final filociclovir and cidofovir concentrations (100, 10, 1.0, 0.1, 0.01, and 0.001 μM) and 6 wells with the control media. Plates were incubated at 37° C. in a 5% CO2 water-vapor atmosphere until plaques were visible. When plaques became visible, plates were stained with gentian violet and plaques were counted at 25λ using a dissecting microscope. The IC50 concentrations were determined from Fitted Line Plot regression analysis using Minitab. All assays were performed in triplicate.

For the next series, the system named is AdV3. Nature of the series: Plaque reduction antiviral IC50 assay in A549, AdV3. In kind it is cell-based, adenovirus 3. As to conditions: Human mastadenovirus B. As to the method:
as §1, §2, §3, §4

In another series the test system is Adenovirus 5 (AdV5). Nature of the series: Cytopathic effects (CPE) reduction assay, AdV5 in HFF cells, 384-well. In kind it is cell-based, human adenovirus 5 (AdV5). As to conditions: for selectivity ratio: human, adenovirus 5, HFF cells, read-out: SI (selective index, CC50/EC50). On the technique in general: Cytopathic effects are the visible damage that an infection or toxin causes in cultured cells.

The test system of a further series is AdV37. Nature of the series: Plaque reduction antiviral IC50 assay in A549, AdV37. Type of series: cell-based, adenovirus 37. As to conditions: unidentified adenovirus. As to the method:
as §1, §2, §3, §4

A further series relates to AdV64. Nature of the series: Plaque reduction antiviral IC50 assay in A549, AdV64. Type of series: cell-based, adenovirus 19/64. To be noted: unidentified adenovirus. On the procedure: as §1, §2, §3, §4
A further series concerns AdV5. Kind of series: Adenovirus/NZW rabbit ocular model. Type of series: in vivo, New Zealand White (NZW) rabbit. On the procedure:
The ability of filociclovir to inhibit adenovirus-related conjunctivitis was tested in a New Zealand White (NZW) rabbit ocular model.
20 NZW rabbits (1.1-1.4 kg) were given general anesthesia with ketamine & xylazine, topical anesthesia with proparacaine, and corneal scarification (12 cross-hatched strokes of a #25 needle) followed by inoculation in both eyes with 50 μl of […] of AdV5 M (6.0×10^8 PFU/ml). Eyes were closed and gently rubbed for 5 seconds to ensure contact of the virus on all ocular surfaces. All rabbits were treated with analgesia in the form of intramuscular injections of ketoprofen (1.5 mg/kg).
Beginning 2 hours after inoculation, all eyes were cultured for virus. Following topical anesthesia with proparacaine, a single cotton-tipped swab was placed into the lower fornix of each eye, rolled over the cornea into the upper fornix to recover adenovirus from the tear film and corneal and conjunctival surfaces. The swabs from each eye were placed individually into tubes containing 1 ml of outgrowth media and were frozen at −80° C. pending plaque assay.
On Day 1, the rabbits were divided into 4 treatment groups for drug administration as set forth in the chart below. The four treatment groups were 0.5% Filociclovir; 0.1% Filociclovir; 0.5% cidofovir; and the negative vehicle control (10% 2-Hydroxpropyl)-β-cyclodextrin, 0.2% cremophore).
Treatments began on Day 1 and drops were administered with at least a 2-hour interval between drops. The eyes of each rabbit were cultured for virus on days 1, 3, 4, 5, 7, 9, 11, and 14 post-inoculation (PI) at least 1 hour after the final drop. At various times during the course of the experiment, AdV5 titers were determined on A549 cell monolayers using a standard plaque assay. The ocular cultures to be titered were thawed, diluted (1:10) and inoculated onto A549 monolayers. The virus was adsorbed for 3 hours. Following adsorption, 1 ml of media plus 0.5% methylcellulose was added to each well, and the plates were incubated at 37° C. in a 5% CO2-water vapor atmosphere. After 7 days incubation, the cells were stained with 0.5% gentian violet, and the numbers of plaques were counted under a dissecting microscope (25λ). The viral titers were then calculated and expressed as plaque-forming units per milliliter (PFU/ml). The data were analyzed statistically using True Epistat and/or Minitab statistical software. Outcome measures included Daily AdV5-Positive Cultures per Total (FIG. 9), Duration of Shedding (FIG. 10) and Daily Viral Titers (FIG. 11). Significance was established at the p≤0.05 confidence level.

The next series has as its system AdV4. Kind of series: Plaque reduction antiviral IC50 assay in A549, AdV4. As to conditions: Human mastadenovirus E. Type of series: cell-based, adenovirus 4. On the procedure: as §1, §2, §3, §4
Setting [1] is: 0.5% topical 2 times daily for 7 days, compared with Vehicle control.
The mark [2] stands for this setting: 0.1% topical 4 times daily for 10 days, compared with Vehicle control.
Where [3] appears, read: 0.5% filociclovir compared with 0.5% cidofovir.
The mark [4] stands for this setting: 0.5% filociclovir compared with the 0.1% filociclovir group.
The mark [5] stands for this setting: 0.5% topical 4 times daily for 10 days, compared with Vehicle control.

Procedure for Adenovirus 5 (AdV5): Antiviral and cytotoxicity data were obtained in a series of three to five separate experiments for each virus to provide an accurate estimate of antiviral activity and statistical data. Each assay included positive and negative control compounds as well as infected and uninfected controls to ensure the integrity of the experiment.
The CPE reduction assays were performed in monolayers of human foreskin fibroblast (HFF) cells (5000/well) in 384-well plates in assay media consisting of MEM with Earle's salts, 2% FBS and standard concentrations of L-glutamine, penicillin and gentamycin. 5000 cells were seeded in 384-well microtiter plates and incubated at 37° C. in a humidified 5% CO2 incubator for 24 hours to allow for formation of confluent monolayers.
Cell monolayers were infected at a multiplicity of infection (MOI) of approximately 0.005 PFU/cell with virus strains including AdV5. […] Cytopathology was determined by the addition of CellTiter-Glo® reagent (Promega, Madison, Wis.). Concentrations of antiviral test compounds sufficient to reduce CPE by 50% (EC50) were interpolated from the experimental data using standard methods in Microsoft® Excel.

Take `Nc1ccn(C[C@@H](CO)OCP(=O)(O)O)c(=O)n1` [CDV, cidofovir, reference compound]: the half-inhibitory concentration (IC50) was determined as 0.487 µM with AdV8 (read-out: Mean IC50); 0.474 µM with AdV8 (read-out: Median IC50); 5.78 µM in the series on AdV3 (read-out: Mean IC50); 6.02 µM in the series on AdV3 (read-out: Median IC50); 3.96 µM with AdV37 (read-out: Mean IC50); 0.382 µM in the series with AdV37 (read-out: Median IC50). Further, the IC50 in the series on AdV64 (read-out: Mean IC50) was determined as 4.09 µM; in the series on AdV64 (read-out: Median IC50), 4.94 µM; in the series with AdV4 (read-out: Mean IC50), 8.71 µM; in the series on AdV4 (read-out: Median IC50), 9.43 µM. Further, the EC50 in the series on Adenovirus 5 (AdV5) (Human mastadenovirus C, AdV 384 Well CPE, HFF cells, average and SD from five independent experiments) amounted to 4 ± 2 µM. For the same compound, the selectivity ratio with Adenovirus 5 (AdV5) is 24. Moreover, in the series with AdV5 (setting [1]), the “adenovirus positive cultures per total (FIG. 9)” value is “fewer number of adenovirus positive cultures per total on Days 7, 9, and 11”. In addition, the “adenovirus titers (FIG. 11)” value in the series on AdV5 (setting [1]) was “significantly lower adenovirus titers on Days 3, 4, 5, 7, 9, and 11”. Further, the “duration of shedding (FIG. 10)” value in the series on AdV5 (setting [1]) is “shorter duration of shedding”.
As to `Nc1nc2c(ncn2/C=C2/CC2(CO)CO)c(=O)[nH]1` [Filociclovir, 2-amino-9-{(Z)-[2,2-bis(hydroxymethyl)cyclopropylidene]methyl}-3,9-dihydro-6H-purin-6-one], the IC50 in the series with AdV8 (read-out: Mean IC50) stood at 0.496 µM; in the series with AdV8 (read-out: Median IC50) it was 0.485 µM; with AdV3 (read-out: Mean IC50) it was 0.778 µM; in the series on AdV3 (read-out: Median IC50), 0.756 µM; in the series on AdV37 (read-out: Mean IC50), 3.53 µM; in the series with AdV37 (read-out: Median IC50), 4.52 µM. The IC50 worked out at 1.86 µM in the series on AdV64 (read-out: Mean IC50), 0.424 µM in the series on AdV64 (read-out: Median IC50), 4.31 µM with AdV4 (read-out: Mean IC50) and 4.24 µM in the series on AdV4 (read-out: Median IC50). Also, the “concentration effective to reduce AdV replication (FIG. 1)” value in the series on Adenovirus 5 (AdV5) (AdV5, tested 0.01 to 100 μM, 'as low as') was at least 0.2 µM. The selectivity ratio in the series with Adenovirus 5 (AdV5) was 43. Further, the “adenovirus positive cultures per total (FIG. 9)” value in the series with AdV5 (setting [2]) is “fewer number of adenovirus positive cultures per total on Days 7, 9, and 11”; in the series on AdV5 (setting [4]), “fewer number of adenovirus positive cultures per total on Day 4”; in the series with AdV5 (setting [5]), “fewer number of adenovirus positive cultures per total on Days 4, 5, 7, 9, and 11”. Besides, the “adenovirus titers (FIG. 11)” value with AdV5 (setting [2]) is “significantly lower adenovirus titers on Days 1, 3, 4, 5, 7, 9, and 11”; in the series with AdV5 (setting [4]) it was “significantly lower adenovirus titers on Days 3, 4, and 5”; with AdV5 (setting [5]), “significantly lower adenovirus titers on Days 1, 3, 4, 5, 7, 9, and 11”. Further, the “duration of shedding (FIG. 10)” value in the series with AdV5 (setting [2]) is on record as “shorter duration of shedding”. The “adenovirus positive cultures per total” value with AdV5 (setting [3]) is “fewer number of adenovirus positive cultures per total on Day 4”. Besides, the adenovirus titers entry in the series with AdV5 (setting [3]) is “significantly lower adenovirus titers on Days 1, 3, 4, and 5”. Moreover, the “duration of adenovirus shedding (FIG. 10)” value in the series with AdV5 (setting [5]) is listed as “shorter duration of adenovirus shedding”.
